Series [1] concerns A. niger. Put plainly: minimum inhibitory concentration by dilution method. It counts as cell-based. As to conditions: Aspergillus niger; A. niger; dilution method; average of three replicates; read-out: MIC. The method, then: [The procedure below names another organism; the source lists this organism under the same test.] (§1) The in vitro antimicrobial screening effects of the compounds (3 and 5a–j) were individually tested against a panel of bacteria and fungi including Staphylococcus aureus (NCIM 5021), Bacillus subtilis (NCIM 2999), Pseudomonas aeruginosa (NCIM 5029), Escherichia coli (NCIM 2574), Candida. albicans (NCIM 3471), and Aspergillus flavus (NCIM 524). Microbial strains were cultured overnight at 37°C in nutrient and potato dextrose agar medium. All the pure microbial strains were obtained from National Chemical Laboratory (NCL), Pune, India.
(§2) The minimum inhibitory concentration of the synthesized compounds was determined by dilution method. The compounds were dissolved and then diluted using DMSO; two-fold serial concentrations of the compounds were employed to determine the MIC. In this method, the test concentrations of chemically synthesized compounds were made from 5 to 125 μg/mL.

Series [2] relates to Aspergillus flavus (NCIM 524). Described as above. It counts as cell-based. As to conditions: Aspergillus flavus, NCIM524; A. flavus; dilution method; average of three replicates; read-out: MIC. Here is the method: as §1, §2
The test system of series [3] is Escherichia coli (NCIM 2574). The series is described as above. As to conditions: Escherichia coli, NCIM2574; E. coli; dilution method; average of three replicates; read-out: MIC. It counts as cell-based. The method, then:
as §1, §2

Series [4] deals with Pseudomonas aeruginosa (NCIM 5029). The series is described as above. The format is cell-based. Particulars: Pseudomonas aeruginosa, NCIM5029; P. aeruginosa; dilution method; average of three replicates; read-out: MIC. Here is the method: as §1, §2
In series [5] the test system is Staphylococcus aureus (NCIM 5021). The series is described as above. It counts as cell-based. As to conditions: Staphylococcus aureus, NCIM5021; S. aureus; dilution method; average of three replicates; read-out: MIC. The method, then:
as §1, §2

The subject of series [6] is Bacillus subtilis (NCIM 2999). The series is described as above. It counts as cell-based. Particulars: Bacillus subtilis, NCIM2999; B. subtilis; dilution method; average of three replicates; read-out: MIC. Here is the method: as §1, §2
Series [7] can be described thus: DPPH free radical scavenging activity. As to conditions: DPPH 0.1 mM, absorbance at 517 nm; triplicate, mean ± SD. The method, then: The capacity to scavenge the stable free radical 2,2-diphenyl-1-picrylhydrazyl (DPPH) was monitored according to the Blois method. The test samples (10–100 μL) were mixed with 1 mL of DPPH (0.1 mM) solution and filled up with methanol to a final volume of 4 mL. Absorbance of the resulting solution was measured at 517 nm in a visible spectrophotometer (Model 166, Systronics, India). The free radical scavenging rate of the reaction solution was calculated as a percentage (%) of DPPH decolouration using the equation (1) I(%)=(Ablank−Asample/Ablank)×100, where A blank is the absorbance of the control reaction mixture excluding the test compounds, and A sample is the absorbance of the test compounds. Radical scavenging potential was expressed as IC50 value, which represents the sample concentration at which 50% of the DPPH radicals were scavenged. Tests were carried out in triplicate and the results were expressed as mean values ± standard deviations.
DPPH radical scavenging activity evaluation is a standard assay in antioxidant activity studies and offers a rapid technique for screening the radical scavenging activity of specific compounds [24]. The free radical scavenging activity of newly synthesized compounds was tested by their ability to bleach the stable radical DPPH. The activity was monitored by following the absorption at 517 nm in a visible spectrophotometer. In the presence of any free radical scavenger, this odd electron pairs up and causes the diminishing of absorption band which is proportional to the number of electrons taken up. The activity was studied at different concentrations for each compound. […] Resulting from a color change from purple to yellow the absorbance decreased when the antioxidant molecule can quench DPPH free radical through donation of hydrogen atom or by electron donating to form a stable DPPH molecule.
(The DPPH test is a chemical assay of radical scavenging.)

The subject of series [8] is A. niger. Kind of series: agar disc diffusion, zone of inhibition. The format is cell-based. As to conditions: Aspergillus niger; A. niger; discs 6 mm, test compounds 100 µg/mL in DMSO, standards 10 µg/disc; 28°C 48 h; average of three replicates; read-out: zone of inhibition. Here is the method:
[The procedure below names another organism; the source lists this organism under the same test.] as §1
(§3) The antibacterial activity of compounds was determined by agar disc diffusion method. Briefly, a suspension of tested bacterial strains was spread on the nutrient agar medium and potato dextrose agar for fungi. The discs (6 mm in diameter) impregnated with test chemicals each dissolved in concentration (100 μg/mL in DMSO) were placed on the inoculated agar and these plates were kept at 4°C for 2 h. The plate was incubated at 37°C for 24 h in case of bacteria and 48 h at 28°C in case of fungi. streptomycin (10 μg/disc) and fluconazole (10 μg/disc) were used as the standards for antibacterial and antifungal activity, respectively. All the samples were performed in triplicate and the zone of inhibition was measured in millimeters.

The subject of series [9] is Aspergillus flavus (NCIM 524). Kind of series: agar disc diffusion, zone of inhibition. It counts as cell-based. As to conditions: Aspergillus flavus, NCIM524; A. flavus; discs 6 mm, test compounds 100 µg/mL in DMSO, standards 10 µg/disc; 28°C 48 h; average of three replicates; read-out: zone of inhibition. The method, then: as §1, §3
Series [10] deals with Escherichia coli (NCIM 2574). Put plainly: agar disc diffusion, zone of inhibition. The format is cell-based. As to conditions: Escherichia coli, NCIM2574; E. coli; discs 6 mm, test compounds 100 µg/mL in DMSO, standards 10 µg/disc; 37°C 24 h; average of three replicates; read-out: zone of inhibition. Here is the method:
as §1, §3
For orientation: In agar diffusion tests the substance spreads into inoculated agar from a disc or well.

Series [11] relates to Pseudomonas aeruginosa (NCIM 5029). Kind of series: agar disc diffusion, zone of inhibition. The format is cell-based. Particulars: Pseudomonas aeruginosa, NCIM5029; P. aeruginosa; discs 6 mm, test compounds 100 µg/mL in DMSO, standards 10 µg/disc; 37°C 24 h; average of three replicates; read-out: zone of inhibition. The method, then: as §1, §3
For series [12], the system named is Staphylococcus aureus (NCIM 5021). Kind of series: agar disc diffusion, zone of inhibition. The format is cell-based. Particulars: Staphylococcus aureus, NCIM5021; S. aureus; discs 6 mm, test compounds 100 µg/mL in DMSO, standards 10 µg/disc; 37°C 24 h; average of three replicates; read-out: zone of inhibition. The method, then:
as §1, §3

The subject of series [13] is Bacillus subtilis (NCIM 2999). Kind of series: agar disc diffusion, zone of inhibition. The format is cell-based. As to conditions: Bacillus subtilis, NCIM2999; B. subtilis; discs 6 mm, test compounds 100 µg/mL in DMSO, standards 10 µg/disc; 37°C 24 h; average of three replicates; read-out: zone of inhibition. Here is the method:
as §1, §3

The nature of series [14]: superoxide radical scavenging assay (NBT, xanthine-xanthine oxidase system). It counts as biochemical. Particulars: NBT reduction, pH 7.8, 560 nm, three replicates. Here is the method: Superoxide radical scavenging activity was measured as described by Kovala-Demertzi et al., (2004). The assay is based on the reduction of nitroblue tetrazolium (NBT) by superoxide ions generated by the xanthine-xanthine oxidase system (X–XO). The reaction system contained 0.2 mM xanthine and 0.6 mM NBT in 0.1 M phosphate buffer, pH 7.8. The tested compounds were dissolved in methanol. The reaction was started by addition of XO (0.07 U mL^−1), an activity which allowed to yield the absorbance change between 0.03 and 0.04 per minute, at 560 nm. The extent of NBT reduction was followed spectrophotometrically, by measuring the increase of the absorbance at 560 nm. All the experiments were replicated three times. The IC50 of each compound was defined as the concentration which inhibited 50% of the NBT reduction by O2 ^•− produced in the X–XO system.
Superoxide anion radical is normally initially formed, and its effects can be magnified because it produces other kinds of free radicals and oxidizing agents. The enzymatic superoxide anion radical was generated by the xanthine/xanthine oxidase reaction system. The production of superoxide was estimated by the nitroblue tetrazolium method. […] Differently, in the m-position, methoxy and hydroxyl groups act as an electron-withdrawing properties, ([…]), which are possible for providing a destabilizing effect.

≈ marks a conversion by molar mass, not a printed value.

Turning to `CC(=O)N(C(=O)c1ccc([N+](=O)[O-])cc1)c1ccc(N=Cc2cc3ccccc3o2)cc1` [Compound 5e, N-acetyl-N-(4-((benzofuran-2-ylmethylene)amino)phenyl)-4-nitrobenzamide], the melting point was found to be 182 °C. In addition, the MIC in [1] was 20 µg/mL (≈ 46.8 µM). The MIC in series [2] came out at 20 µg/mL (≈ 46.8 µM). Moreover, the MIC in [3] amounted to 25 µg/mL (≈ 58.5 µM). For the same compound, the MIC in [4] was 25 µg/mL (≈ 58.5 µM). Also, in series [5], the MIC turned out to be 15 µg/mL (≈ 35.1 µM). For the same compound, in [6], the MIC is 15 µg/mL (≈ 35.1 µM). The “IC50 DPPH” value in series [7] is given as 87.4 ± 0.31 µg/mL (≈ 204 µM). Moreover, the zone of inhibition at 100 µg/mL in [8] was 14.1 mm. The zone of inhibition at 100 µg/mL in series [9] was 13.6 mm. Also, the zone of inhibition at 100 µg/mL in series [10] came to 9 mm. Moreover, in series [11], the zone of inhibition at 100 µg/mL came to 11 mm. For the same compound, the zone of inhibition at 100 µg/mL in series [12] amounted to 14 mm. The zone of inhibition at 100 µg/mL in series [13] was determined as 11 mm. Besides, the “IC50 Superoxide” value in series [14] came out at 79.2 ± 0.24 µg/mL (≈ 185 µM).
`CC(=O)N(C(=O)c1ccccc1C)c1ccc(N=Cc2cc3ccccc3o2)cc1` [Compound 5f, N-acetyl-N-(4-((benzofuran-2-ylmethylene)amino)phenyl)-2-methylbenzamide] yielded a melting point of 187 °C. Also, in [1], the MIC is 100 µg/mL (≈ 252 µM). Moreover, in series [2], the MIC turned out to be 75 µg/mL (≈ 189 µM). Also, the MIC in [3] stood at 100 µg/mL (≈ 252 µM). Further, in series [4], the MIC stood at 100 µg/mL (≈ 252 µM). Besides, the MIC in series [5] was 50 µg/mL (≈ 126 µM). The MIC in [6] stood at 50 µg/mL (≈ 126 µM). The “IC50 DPPH” value in [7] was 53 ± 0.04 µg/mL (≈ 134 µM). The zone of inhibition at 100 µg/mL in [8] is 12 mm. The zone of inhibition at 100 µg/mL in [9] is 10.2 mm. Besides, the zone of inhibition at 100 µg/mL in series [10] was 11 mm. Moreover, the zone of inhibition at 100 µg/mL in series [11] was 10 mm. Further, the zone of inhibition at 100 µg/mL in series [12] came out at 10 mm. Further, the zone of inhibition at 100 µg/mL in series [13] was 8 mm. Besides, the “IC50 Superoxide” value in series [14] was 49 ± 0.17 µg/mL (≈ 124 µM).

The term MIC denotes the least concentration at which growth counts as inhibited. One may read the zone of inhibition as the extent of the growth-free halo in a diffusion test. By melting point is commonly meant the temperature, or range, at which the solid turns liquid.
